{"source": "PubChem BioAssay AID1963963", "about": "(Molecular Pharmacology Branch, DTP, NCI, 2024)", "tested_on": "958667-338-R-J2-PDC tumor spheroids viability", "assay": "Anticancer human tumor 958667-338-R-J2-PDC patient-derived colon adenocarcinoma cell line growth inhibition [PI3K]", "details": "spheroids with HUVEC and MSC; for pIC50: curve of first compound; for viability, T/C: stronger effect = lower value", "outline": "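Stroma-containing spheroids: tumor line, pooled-donor HUVEC, hMSC. Treatments: targeted agents with PI3K inhibitors. Dosing: clinically relevant, half-log spacing, 10 microM ceiling without known Cmax. Read-out: cell viability.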", "key": {"[1]": {"details": "second compound 0.0316 µM, first compound 0.0316 µM"}, "[2]": {"details": "second compound 0.0316 µM, first compound 0.1 µM"}, "[3]": {"details": "second compound 0.0316 µM, first compound 0.316 µM"}, "[4]": {"details": "second compound 0.0316 µM, first compound 1 µM"}, "[5]": {"details": "second compound 0.1 µM, first compound 0.0316 µM"}, "[6]": {"details": "second compound 0.1 µM, first compound 0.1 µM"}, "[7]": {"details": "second compound 0.1 µM, first compound 0.316 µM"}, "[8]": {"details": "second compound 0.1 µM, first compound 1 µM"}, "[9]": {"details": "second compound 0.316 µM, first compound 0.0316 µM"}, "[10]": {"details": "second compound 0.316 µM, first compound 0.1 µM"}, "[11]": {"details": "second compound 0.316 µM, first compound 0.316 µM"}, "[12]": {"details": "second compound 0.316 µM, first compound 1 µM"}, "[13]": {"details": "second compound 1 µM, first compound 0.0316 µM"}, "[14]": {"details": "second compound 1 µM, first compound 0.1 µM"}, "[15]": {"details": "second compound 1 µM, first compound 0.316 µM"}, "[16]": {"details": "second compound 1 µM, first compound 1 µM"}, "[17]": {"details": "second compound 3.16 µM, first compound 0.0316 µM"}, "[18]": {"details": "second compound 3.16 µM, first compound 0.1 µM"}, "[19]": {"details": "second compound 3.16 µM, first compound 0.316 µM"}, "[20]": {"details": "second compound 3.16 µM, first compound 1 µM"}, "[21]": {"details": "second compound 10 µM, first compound 0.0316 µM"}, "[22]": {"details": "second compound 10 µM, first compound 0.1 µM"}, "[23]": {"details": "second compound 10 µM, first compound 0.316 µM"}, "[24]": {"details": "second compound 10 µM, first compound 1 µM"}}, "note": "pIC50: −log10 of the molar value.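 Note: spheroids exposed to compounds for seven days before readout.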"}
{"smiles": "CC(C)NCC(C(=O)N1CCN(c2ncnc3c2C(C)CC3O)CC1)c1ccc(Cl)cc1", "note": "(centres undefined) + CC(Nc1ncnc2nc[nH]c12)c1cc2cccc(Cl)c2c(=O)n1-c1ccccc1", "values": [{"measurement": "pIC50", "setting": "second compound 0.0316 µM", "value": "< 5.00"}, {"measurement": "pIC50", "setting": "second compound 0.1 µM", "value": "< 5.00"}, {"measurement": "pIC50", "setting": "second compound 0.316 µM", "value": "< 5.00"}, {"measurement": "pIC50", "setting": "second compound 1 µM", "value": "< 5.00"}, {"measurement": "pIC50", "setting": "second compound 3.16 µM", "value": "< 5.00"}, {"measurement": "pIC50", "setting": "second compound 10 µM", "value": "< 5.00"}, {"measurement": "viability, T/C", "setting": "[1]", "value": 81.9, "unit": "%"}, {"measurement": "viability, T/C", "setting": "[2]", "value": 97.3, "unit": "%"}, {"measurement": "viability, T/C", "setting": "[3]", "value": 72.1, "unit": "%"}, {"measurement": "viability, T/C", "setting": "[4]", "value": 82, "unit": "%"}, {"measurement": "viability, T/C", "setting": "second compound 0.0316 µM, first compound 3.16 µM", "value": 89.7, "unit": "%"}, {"measurement": "viability, T/C", "setting": "second compound 0.0316 µM, first compound 10 µM", "value": 64, "unit": "%"}, {"measurement": "viability, T/C", "setting": "[5]", "value": 102, "unit": "%"}, {"measurement": "viability, T/C", "setting": "[6]", "value": 95.7, "unit": "%"}, {"measurement": "viability, T/C", "setting": "[7]", "value": 86.5, "unit": "%"}, {"measurement": "viability, T/C", "setting": "[8]", "value": 95.7, "unit": "%"}, {"measurement": "viability, T/C", "setting": "second compound 0.1 µM, first compound 3.16 µM", "value": 92.4, "unit": "%"}, {"measurement": "viability, T/C", "setting": "second compound 0.1 µM, first compound 10 µM", "value": 68.7, "unit": "%"}, {"measurement": "viability, T/C", "setting": "[9]", "value": 94.7, "unit": "%"}, {"measurement": "viability, T/C", "setting": "[10]", "value": 104, "unit": "%"}, {"measurement": "viability, T/C", "setting": "[11]", "value": 80, "unit": "%"}, {"measurement": "viability, T/C", "setting": "[12]", "value": 94, "unit": "%"}, {"measurement": "viability, T/C", "setting": "second compound 0.316 µM, first compound 3.16 µM", "value": 83.3, "unit": "%"}, {"measurement": "viability, T/C", "setting": "second compound 0.316 µM, first compound 10 µM", "value": 70.5, "unit": "%"}, {"measurement": "viability, T/C", "setting": "[13]", "value": 85.9, "unit": "%"}, {"measurement": "viability, T/C", "setting": "[14]", "value": 80.6, "unit": "%"}, {"measurement": "viability, T/C", "setting": "[15]", "value": 93.4, "unit": "%"}, {"measurement": "viability, T/C", "setting": "[16]", "value": 101, "unit": "%"}, {"measurement": "viability, T/C", "setting": "second compound 1 µM, first compound 3.16 µM", "value": 77.8, "unit": "%"}, {"measurement": "viability, T/C", "setting": "second compound 1 µM, first compound 10 µM", "value": 63.4, "unit": "%"}, {"measurement": "viability, T/C", "setting": "[17]", "value": 77.4, "unit": "%"}, {"measurement": "viability, T/C", "setting": "[18]", "value": 87.5, "unit": "%"}, {"measurement": "viability, T/C", "setting": "[19]", "value": 102, "unit": "%"}, {"measurement": "viability, T/C", "setting": "[20]", "value": 84.2, "unit": "%"}, {"measurement": "viability, T/C", "setting": "second compound 3.16 µM, first compound 3.16 µM", "value": 80.2, "unit": "%"}, {"measurement": "viability, T/C", "setting": "second compound 3.16 µM, first compound 10 µM", "value": 64.7, "unit": "%"}, {"measurement": "viability, T/C", "setting": "[21]", "value": 91.2, "unit": "%"}, {"measurement": "viability, T/C", "setting": "[22]", "value": 88.4, "unit": "%"}, {"measurement": "viability, T/C", "setting": "[23]", "value": 79.3, "unit": "%"}, {"measurement": "viability, T/C", "setting": "[24]", "value": 83.2, "unit": "%"}, {"measurement": "viability, T/C", "setting": "second compound 10 µM, first compound 3.16 µM", "value": 81.7, "unit": "%"}, {"measurement": "viability, T/C", "setting": "second compound 10 µM, first compound 10 µM", "value": 55.2, "unit": "%"}]}
{"smiles": "CCN1CCN(Cc2ccc(Nc3ncc(F)c(-c4cc(F)c5nc(C)n(C(C)C)c5c4)n3)nc2)CC1", "note": "+ CC(Nc1ncnc2nc[nH]c12)c1cc2cccc(Cl)c2c(=O)n1-c1ccccc1", "values": [{"measurement": "pIC50", "setting": "second compound 0.0316 µM", "value": "< 6.00"}, {"measurement": "pIC50", "setting": "second compound 0.1 µM", "value": "< 6.00"}, {"measurement": "pIC50", "setting": "second compound 0.316 µM", "value": "< 6.00"}, {"measurement": "pIC50", "setting": "second compound 1 µM", "value": "< 6.00"}, {"measurement": "pIC50", "setting": "second compound 3.16 µM", "value": "< 6.00"}, {"measurement": "pIC50", "setting": "second compound 10 µM", "value": "< 6.00"}, {"measurement": "viability, T/C", "setting": "second compound 0.0316 µM, first compound 0.00316 µM", "value": 91.2, "unit": "%"}, {"measurement": "viability, T/C", "setting": "second compound 0.0316 µM, first compound 0.01 µM", "value": 98.2, "unit": "%"}, {"measurement": "viability, T/C", "setting": "[1]", "value": 98.8, "unit": "%"}, {"measurement": "viability, T/C", "setting": "[2]", "value": 76.2, "unit": "%"}, {"measurement": "viability, T/C", "setting": "[3]", "value": 66.1, "unit": "%"}, {"measurement": "viability, T/C", "setting": "[4]", "value": 63.4, "unit": "%"}, {"measurement": "viability, T/C", "setting": "second compound 0.1 µM, first compound 0.00316 µM", "value": 87.2, "unit": "%"}, {"measurement": "viability, T/C", "setting": "second compound 0.1 µM, first compound 0.01 µM", "value": 88.9, "unit": "%"}, {"measurement": "viability, T/C", "setting": "[5]", "value": 87.3, "unit": "%"}, {"measurement": "viability, T/C", "setting": "[6]", "value": 83, "unit": "%"}, {"measurement": "viability, T/C", "setting": "[7]", "value": 68.8, "unit": "%"}, {"measurement": "viability, T/C", "setting": "[8]", "value": 65.2, "unit": "%"}, {"measurement": "viability, T/C", "setting": "second compound 0.316 µM, first compound 0.00316 µM", "value": 89.2, "unit": "%"}, {"measurement": "viability, T/C", "setting": "second compound 0.316 µM, first compound 0.01 µM", "value": 97, "unit": "%"}, {"measurement": "viability, T/C", "setting": "[9]", "value": 82.2, "unit": "%"}, {"measurement": "viability, T/C", "setting": "[10]", "value": 70.8, "unit": "%"}, {"measurement": "viability, T/C", "setting": "[11]", "value": 71.4, "unit": "%"}, {"measurement": "viability, T/C", "setting": "[12]", "value": 71.2, "unit": "%"}, {"measurement": "viability, T/C", "setting": "second compound 1 µM, first compound 0.00316 µM", "value": 102, "unit": "%"}, {"measurement": "viability, T/C", "setting": "second compound 1 µM, first compound 0.01 µM", "value": 71.1, "unit": "%"}, {"measurement": "viability, T/C", "setting": "[13]", "value": 86.2, "unit": "%"}, {"measurement": "viability, T/C", "setting": "[14]", "value": 66.1, "unit": "%"}, {"measurement": "viability, T/C", "setting": "[15]", "value": 69, "unit": "%"}, {"measurement": "viability, T/C", "setting": "[16]", "value": 66.2, "unit": "%"}, {"measurement": "viability, T/C", "setting": "second compound 3.16 µM, first compound 0.00316 µM", "value": 108, "unit": "%"}, {"measurement": "viability, T/C", "setting": "second compound 3.16 µM, first compound 0.01 µM", "value": 89.7, "unit": "%"}, {"measurement": "viability, T/C", "setting": "[17]", "value": 84, "unit": "%"}, {"measurement": "viability, T/C", "setting": "[18]", "value": 65.5, "unit": "%"}, {"measurement": "viability, T/C", "setting": "[19]", "value": 64, "unit": "%"}, {"measurement": "viability, T/C", "setting": "[20]", "value": 55.9, "unit": "%"}, {"measurement": "viability, T/C", "setting": "second compound 10 µM, first compound 0.00316 µM", "value": 90, "unit": "%"}, {"measurement": "viability, T/C", "setting": "second compound 10 µM, first compound 0.01 µM", "value": 82.8, "unit": "%"}, {"measurement": "viability, T/C", "setting": "[21]", "value": 77.8, "unit": "%"}, {"measurement": "viability, T/C", "setting": "[22]", "value": 57.8, "unit": "%"}, {"measurement": "viability, T/C", "setting": "[23]", "value": 57.8, "unit": "%"}, {"measurement": "viability, T/C", "setting": "[24]", "value": 53.9, "unit": "%"}]}
